This is an account of results in patent publication US20130071482A1, “BLOCK COPOLYMER CROSS-LINKED NANOASSEMBLIES AS MODULAR DELIVERY VEHICLES” (THE UNIVERSITY OF KENTUCKY RESEARCH FOUNDATION, priority 2011, published 2013).

Series [1] can be described thus: Drug release experiment (dialysis of DOX-loaded particles, sink condition). The format is physicochemical. Particulars: 37° C., from AUC of release-time curve, normalized to initial drug loading (100%). The method, then: Proton nuclear magnetic resonance (^1H-NMR, Varian, 400 MHz) measurements were used to determine the compositions of block copolymers and nanoassemblies in DMSO-d6 and D2O, respectively. The number average molecular weights (Mn) of block copolymers and nanoassemblies were calculated by gel permeation chromatography (GPC, Shimadzu LC20, Japan) equipped with RI and UV detectors, using PEG standard and a phosphate buffered saline (PBS, 1×) mobile phase. Particle sizes of nanoassemblies were determined by dynamic light scattering (DLS, Zetasizer Nano 90, Malvern, UK) measurements at a 173° fixed angle. All samples were prepared in aqueous solutions at 2 mg/mL and filtered through 0.22 μm filters prior to GPC and DLS analyses. DOX loading and release were quantified using ultraviolet-visible spectrophotometry spectroscopy (UV-Vis, absorbance at 480 nm, SpectraMax M5, Molecular Devices, USA).
All particles entrapping DOX were dissolved in deionized water (0.5 mg/mL), and transferred to six dialysis cassettes (MWCO 10 kDa). […] Drug release patterns were monitored under the sink condition as the volume of dialysis medium was maintained 3,000 times greater (5 L) than the volume of the sample solution in the dialysis cassettes (1.65 mL/cassette, n=3). […] DOX remaining in each dialysis cassette was measured at 0, 1, 3, 6, 10, 24, 34, and 48 h. […]

The test system of series [2] is human non-small cell lung cancer A549 cell line. In words: Cytotoxicity assay (resazurin cell viability). The series is classed as cell-based. Particulars: A549 cells. The method, then: A human non-small cell lung cancer A549 cell line was used to determine the cytotoxicity of empty nanoassemblies, DOX-loaded nanoassemblies, and free DOX. Cells were seeded in a 96-well plate (5,000 cells/well) in 100 μL F12K cell culture medium containing 10% FBS. After 24 hours, serial dilutions of the samples were added to the cell plate. Cells were then incubated at 37° C., 5% CO2, for 72 hours, followed by cell viability measurement using a resazurin assay that indicates mitochondrial metabolic activity in live cells. Resazurin solution in PBS (10 μL, 1 mM) was added to the sample-treated cells at the end of the 72-hour treatment period. Three hours later, the fluorescence of resorufin, metabolited resazurin, was measured at 560 nm (excitation)/590 nm (emission). The half maximal inhibitory concentration (IC50) was calculated with Prism software (GraphPad, USA).
In general terms: The colour change of resazurin is a common sign of viable cells or microbes.

Structures are written as SMILES.

The term IC50 denotes the concentration that gives 50% inhibition.

With `COc1cccc2c1C(=O)c1c(O)c3c(c(O)c1C2=O)C[C@@](O)(C(=O)CO)C[C@@H]3O[C@H]1C[C@H](N)[C@H](O)[C@H](C)O1.Cl` [Free DOX, doxorubicin hydrochloride], the “Accumulated drug release at pH 5.0 in 48 h” value in series [1] (pH 5.0, 48 h) is listed as 100%. For the same molecule, in series [1] (pH 7.4, 48 h), the “Accumulated drug release at pH 7.4 in 48 h” value worked out at 100%. In series [2] (72 hours incubation, resazurin assay, DOX equivalent), the IC50 turned out to be 530 ± 200 nM. Moreover, the Relative cytotoxicity in series [2] (IC50 relative to free DOX (fold)) is reported as 1.00.
